The record followed here is patent publication US6838467B2, “Dosing regimen” (Janssen Pharmaceutica N. V., priority 2000, dated 2005).

Common to all, as to type: in vivo
Assay [1] deals with T24 H-ras transformed NIH3T3 cell tumors. Kind of assay: Tumor studies in nude mice: T24 H-ras tumors, oral compound 1. From the text:
(§1) Cell Culture: CAPAN-2 human pancreatic carcinoma cells were purchased from the American Type Culture Collection (Rockville, Md.). Cells were maintained in McCoys 5A Medium supplemented with 10% fetal calf serum and penicillin-streptomycin. NIH 3T3 cells transfected with the activated T24 H-ras oncogene (T24 cells ) were obtained from, Janssen Research Foundation (For methods see Parada, L. F., Tabin, C. J., Shih, C., and Weinberg, R Human EJ bladder carcinoma oncogene is
homologue of Harvey sarcoma virus ras gene. Nature 297: 474-478, 1982.; Santos, E., Tronick, S. R., Aaronson, S. A., Pulciani, S., and Barbacid, M. T24 human bladder carcinoma oncogene is an activated form of the normal human homologue of BALB-and Harvey-MSV transforming genes. Nature 298: 343-347, 1982.) T24 cells were maintained as monolayer cultures in Dulbecco's Modified Eagle's Medium (DMEM) supplemented with 10% Nu-serum Type IV (Collaborative Biomedical Products, Bedford, Mass. and 40 μg/ml G418 (Geneticin®, GIBCO-BRL, Gaithersburg, Md.).
(§2) Animals: Female nu/nu immunodeficient nude mice (42 days old) were purchased from Charles River Laboratories (Wilmington, Mass.). Mice were housed five per cage in microisolator cages placed in laminar flow shelving to maintain sterility. All bedding, food, water and cages were autoclaved. Animals were handled within the sterile confines of a laminar flow cabinet. The mice were otherwise maintained under standard vivarium conditions. Tumor studies were conducted under a protocol approved by the Institutional Animal Care and Use Committee.
(§3) Tumor Studies In Nude Mice: Cells growing as monolayers in T150 tissue culture flasks were detached by trypsinization with 10 ml of 0.05% trypsin plus 0.53 mM EDTA per flask. Tumor cell suspensions were pooled and trypsin was inactivated by the addition of serum containing medium (10 ml per 40 ml of trypsin cell suspension). Cells were collected by centrifugation and resuspended in Hank's Balanced Salt Solution (HBSS) warmed to 37° C. A 1.0 ml portion of cell suspension was added to 20 ml of diluent and counted on a Coulter particle counter. The cell suspensions were recentrifuged and resuspended at a concentration of 1×10^6 cell per 0.10 ml of HBSS. Mice were inoculated with a single subcutaneous injection of 0.10 ml of tumor cell suspension in the inguinal region. Mice were housed five per cage with 15 mice assigned to each treatment group. Body weight and tumor size as determined by caliper measurements were measured weekly. The caliper measurements of length and width were multiplied to obtain tumor areas. At the end of study, mice were sacrificed by CO2 asphyxiation.
Three days after tumor inoculation, the five day treatment with (R)-6-[amino(4-chlorophenyl)(1-methyl-1H-imidazol-5yl)methyl]-4-(3-chlorophenyl)-1-methyl-2(1H)-quinolinone (compound 1) was initiated. Compound 1 was administered once daily by oral gavage in a 20% beta-cyclodextrin vehicle as a volume of 0.10 ml of solution per 10 gm body weight. Control groups received the same dosage volume of the 20% beta-cyclodextrin vehicle.
Compounds. Compound 1 was prepared for oral administration by dissolving the compound first as a 2× concentrated stock in 40% hydroxypropyl beta cyclodextrin (lot no. 051-071/1) in 0.1 N HCI. Compound 1 was dissolved by stirring vigorously approximately 30 minutes followed by sonication for 10 min. The compound 1 solutions were brought to a final concentration by diluting 1:1 with 0.1 N HCI. The final drug solutions were sterile filtered immediately and transferred to sterile tubes. Solutions were stored refrigerated and protected form light during the course of the study and sterility was maintained by opening solutions under sterile laminar flow conditions.

In assay [2] the test system is CAPAN-2 human pancreatic tumors. Kind of assay: Tumor studies in nude mice: CAPAN-2 tumors, oral compound 1. The note with it: for tumor growth, continuous schedule: continuous for 18 days, previous study.
Source text: as §1, §2, §3
[…] […] Control groups received the same dosage volume of the 20% beta-cyclodextrin vehicle.
[…] […] […] […] The final drug solutions were sterile filtered immediately and transferred to sterile tubes. Solutions were stored refrigerated and protected form light during the course of the study and sterility was maintained by opening solutions under sterile laminar flow conditions.

For assay [3], the system named is T24 H-ras transformed NIH3T3 cell tumors. Kind of assay: Tumor studies in nude mice: T24 H-ras tumors, oral compound 1. The note with it: for duration of response (tumor suppressive effect): five-day dosing schedule.
The mark [4] stands for this setting: 50, 100 and 200 mg/kg, five-day schedule, day 17.

Turning to `Cn1cncc1[C@@](N)(c1ccc(Cl)cc1)c1ccc2c(c1)c(-c1cccc(Cl)c1)cc(=O)n2C` [compound 1, (R)-6-[amino(4-chlorophenyl)(1-methyl-1H-imidazol-5yl)methyl]-4-(3-chlorophenyl)-1-methyl-2(1H)-quinolinone], the “duration of response (tumor suppressive effect)” value in assay [1] (50 mg/kg, five-day dosing schedule) is “waned by day 14”; in assay [3] (100 mg/kg), “waned by day 14”; in assay [3] (200 mg dose), “sustained effects out to day 17”. Further, the “tumor size on day 17” value in assay [1] (200 mg/kg once daily p.o. for five days (days 3-8 after tumor inoculation), day 17) is on record as “small tumors”. For the same compound, the “reduction of final tumor weights” value in assay [1] (200 mg/kg, five-day schedule, day 17) was 90%. For the same compound, the “reduction of tumor growth measured as final tumor area” value in assay [1] (setting [4]) is recorded as “Significant, dose-related reductions”. Moreover, the “reduction of tumor growth measured as final tumor weights” value in assay [1] (setting [4]) is recorded as “Significant, dose-related reductions”. Also, the “tumor growth after additional 5-day treatment” value in assay [1] (additional 5-day treatment with 200 mg/kg starting on day 21) is “again arrested but not as dramatically as in the initial treatment”. For the same compound, the “tumor growth, continuous schedule” value in assay [2] (50 mg/kg twice daily (100 mg/kg total daily dose)) and in assay [2] (100 mg/kg twice daily (200 mg/kg daily dose)) was “significant reductions of tumor growth” each time. Moreover, in assay [2] (200 mg/kg for five days, no further treatment), the “tumor growth after day 24 without further treatment” value is on record as “returned to the growth rate observed for vehicle treated controls”. The “growth of CAPAN-2 tumors” value in assay [2] (200 mg/kg p.o. once daily for five days, started three days after inoculation) is on record as “significantly reduced the growth of CAPAN-2 tumors out to day 24”. The “tumor growth after additional five-day treatment” value in assay [2] (additional five-day treatment on days 21 to 25, significant on day 28) is “transient growth arrest”. The “day by which tumors left untreated returned to rapid control growth rates” value in assay [3] (200 mg/kg once daily p.o. for five days, no further treatment) was no more than 24 days. For the same compound, the “duration of sustained inhibition of tumor growth” value in assay [3] (single 200 mg/kg dose three days after tumor inoculation) and in assay [3] (single 400 mg/kg dose three days after tumor inoculation) was 15 days throughout.
